Measured values: US20060149100A1, “Process for separating and recovering 3-hydroxypropionic acid and acrylic acid” (priority 2003, published 2006)

Experiment: Extraction of acrylic acid and 3-hydroxypropionic acid from aqueous stock solutions using various extractants
Conditions: Aqueous Stock Solution No. 1 (0.67 wt % AA, 1.34 wt % 3HP); 22° C.
Source text: In this Example, there were utilized five (5) aqueous stock solutions. The aqueous stock solutions comprise 3-hydroxypropionic acid and acrylic acid. In each of the five aqueous stock solutions, the concentration of 3-hydroxypropionic acid is approximately two times higher than the concentration of the acrylic acid.
In carrying out the following extractions of 3-hydroxypropionic acid and acrylic acid from aqueous stock solutions comprising 3-hydroxypropionic acid and acrylic acid, the following organic extractants were used: • a. Decanol • b. Methyl isobutyl ketone (MiBK) • c. Isopropyl ether • d. Methyl acrylate • e. Methyl propionate • f. Methylene chloride (CH2Cl2) • g. Toluene • h. Isopropyl acetate • i. Ethyl acetate • j. 50/50 wt % Tributyl phosphate (TBP) and ISOPAR-K isoparaffinic hydrocarbon available from Exxon Mobil Corporation The extraction procedure utilized in the Examples herein for separating and recovering 3-hydroxypropionic acid and acrylic acid from aqueous solutions comprising 3-hydroxypropionic acid and acrylic acid is set forth below.
1. To a 15 ml centrifuge tube 5 ml of an acid stock solution and an extractant were added. Masses of the empty centrifuge tube, the aqueous solution and extractant were recorded.
2. The tube was placed on a platform shaker and the contents in the tube were mixed at 230 rpm for 30 minutes at 22° C. (rpm designates revolutions per minute).
3. At the end of mixing, the tube was centrifuged at 4500 rpm for 5 minutes.
4. The volumes of the aqueous and extractant phases in the tube were recorded.
5. The aqueous phase was separated from the extractant phase and the masses of both phases were recorded.
6. The acrylic acid and the 3-hydroxypropionic acid in the aqueous solution were analyzed by HPLC.
7. The concentrations of acrylic acid and 3-hydroxypropionic acid in the organic extractant were calculated by subtracting the concentrations of acrylic acid and 3-hydroxypropionic acid in the aqueous phase from the initial concentration in the stock solution.

| SMILES | Acid in Aqueous Phase, wt % 3HP [wt %] | Acid in Aqueous Phase, wt % AA [wt %] | Acid in Extractant Phase, wt % AA [wt %] | Acid in Extractant Phase, wt % 3HP [wt %] | Separation Factor, S AA/3HP |
| --- | --- | --- | --- | --- | --- |
| ClCCl [CH2Cl2, Methylene chloride] | 1.39 | 0.61 | 0.04 | – | – |
| CCCCCCCCCCO [Decanol] | 1.37 | 0.31 | 0.47 | 0.03 | 77.18 |
| CCOC(C)=O [Ethyl Acetate, Ethyl acetate, reference compound] | 1.13 | 0.20 | 0.59 | 0.20 | 16.55 |
| CC(=O)OC(C)C [Isopropyl Acetate, Isopropyl acetate] | 1.28 | 0.24 | 0.52 | 0.06 | 43.36 |
| CC(C)OC(C)C [Isopropyl Ether, Isopropyl ether] | 1.30 | 0.36 | 0.44 | 0.04 | 40.59 |
| C=CC(=O)OC [Methyl Acrylate, Methyl acrylate] | 1.24 | 0.25 | 0.45 | 0.07 | 31.01 |
| CCC(=O)OC [Methyl Propionate, Methyl propionate] | 1.22 | 0.24 | 0.51 | 0.06 | 44.43 |
| CC(=O)CC(C)C [MiBK, Methyl isobutyl ketone] | 1.32 | 0.23 | 0.59 | 0.03 | 108.82 |
| Cc1ccccc1 [Toluene] | 1.42 | 0.69 | – | – | – |

Same assay, conditions: Aqueous Stock Solution No. 1 (0.67 wt % AA, 1.34 wt % 3HP); 22° C.; extractant phase/aqueous phase

| SMILES | Partition Coefficient, D AA | Partition Coefficient, D 3HP |
| --- | --- | --- |
| ClCCl [CH2Cl2, Methylene chloride] | 0.06 | – |
| CC(=O)OC(C)C [Isopropyl Acetate, Isopropyl acetate] | 2.19 | 0.05 |
| C=CC(=O)OC [Methyl Acrylate, Methyl acrylate] | 1.82 | 0.06 |
| CCC(=O)OC [Methyl Propionate, Methyl propionate] | 2.13 | 0.05 |

Same assay, conditions: Aqueous Stock Solution No. 2 (3.33 wt % AA, 6.67 wt % 3HP); 22° C.

| SMILES | Acid in Aqueous Phase, wt % 3HP [wt %] | Acid in Aqueous Phase, wt % AA [wt %] | Acid in Extractant Phase, wt % 3HP [wt %] | Acid in Extractant Phase, wt % AA [wt %] | Separation Factor, S AA/3HP |
| --- | --- | --- | --- | --- | --- |
| CCOC(C)=O [Ethyl Acetate, Ethyl acetate, reference compound] | 5.77 | 0.97 | 1.21 | 2.87 | 14.18 |

Same assay, conditions: Aqueous Stock Solution No. 3 (6.67 wt % AA, 13.34 wt % 3HP); 22° C.

| SMILES | Acid in Aqueous Phase, wt % 3HP [wt %] | Acid in Aqueous Phase, wt % AA [wt %] | Acid in Extractant Phase, wt % 3HP [wt %] | Acid in Extractant Phase, wt % AA [wt %] | Separation Factor, S AA/3HP |
| --- | --- | --- | --- | --- | --- |
| CCOC(C)=O [Ethyl Acetate, Ethyl acetate, reference compound] | 11.38 | 2.02 | 3.09 | 5.36 | 9.79 |

Same assay, conditions: Aqueous Stock Solution No. 4 (9.99 wt % AA, 19.98 wt % 3HP); 22° C.

| SMILES | Acid in Aqueous Phase, wt % 3HP [wt %] | Acid in Aqueous Phase, wt % AA [wt %] | Acid in Extractant Phase, wt % 3HP [wt %] | Acid in Extractant Phase, wt % AA [wt %] | Separation Factor, S AA/3HP |
| --- | --- | --- | --- | --- | --- |
| CCOC(C)=O [Ethyl Acetate, Ethyl acetate, reference compound] | 17.08 | 3.18 | 5.17 | 7.53 | 7.81 |

Same assay, conditions: Aqueous Stock Solution No. 5 (12.51 wt % AA, 25.05 wt % 3HP); 22° C.

| SMILES | Acid in Aqueous Phase, wt % 3HP [wt %] | Acid in Aqueous Phase, wt % AA [wt %] | Acid in Extractant Phase, wt % 3HP [wt %] | Acid in Extractant Phase, wt % AA [wt %] | Separation Factor, S AA/3HP |
| --- | --- | --- | --- | --- | --- |
| ClCCl [CH2Cl2, Methylene chloride] | 25.05 | 7.84 | 0.53 | 3.72 | 22.45 |
| CCCCCCCCCCO [Decanol] | 25.90 | 5.94 | 3.21 | 8.20 | 11.13 |
| CCOC(C)=O [Ethyl Acetate, Ethyl acetate, reference compound] | 21.16 | 4.22 | 8.68 | 8.07 | 4.66 |
| CC(=O)OC(C)C [Isopropyl Acetate, Isopropyl acetate] | 25.35 | 4.42 | 3.82 | 8.95 | 13.43 |
| CC(C)OC(C)C [Isopropyl Ether, Isopropyl ether] | 25.72 | 5.92 | 1.85 | 9.79 | 22.91 |
| C=CC(=O)OC [Methyl Acrylate, Methyl acrylate] | 21.57 | 4.51 | 6.70 | 8.13 | 5.80 |
| CCC(=O)OC [Methyl Propionate, Methyl propionate] | 22.63 | 4.54 | 5.54 | 8.55 | 7.69 |
| CC(=O)CC(C)C [MiBK, Methyl isobutyl ketone] | 24.17 | 4.11 | 5.46 | 9.92 | 10.69 |
| Cc1ccccc1 [Toluene] | 26.72 | 10.57 | – | 2.47 | – |

Same assay, conditions: Aqueous Stock Solution No. 5 (12.51 wt % AA, 25.05 wt % 3HP); 22° C.; extractant phase/aqueous phase

| SMILES | Partition Coefficient, D 3HP | Partition Coefficient, D AA |
| --- | --- | --- |
| ClCCl [CH2Cl2, Methylene chloride] | 0.02 | 0.48 |
| CC(=O)OC(C)C [Isopropyl Acetate, Isopropyl acetate] | 0.15 | 2.02 |
| C=CC(=O)OC [Methyl Acrylate, Methyl acrylate] | 0.31 | 1.80 |
| CCC(=O)OC [Methyl Propionate, Methyl propionate] | 0.25 | 1.88 |

Experiment: Distillation of organic extractant from acrylic acid solution in the presence of water
Type: physicochemical
Conditions: distillation at about 100 mm Hg, room temperature; 18.5 g isopropyl ether, 3 g acrylic acid, 9 g water
Procedure: In this Example, there is shown the process for separating and recovering acrylic acid from a solution comprising acrylic acid and an organic extractant that has a boiling point lower than 100° C. The process involves distillation of the solution, in the presence of water, to distill the organic extractant having a boiling point lower than 100° C., resulting in an aqueous acrylic acid solution.
More particularly, 18.5 grams of isopropyl ether, 3 grams of acrylic acid, and 9 grams of distilled water were introduced into a 100 ml round bottom flask. The organic extractant, isopropyl ether, that has a boiling point of 68° C. at ambient temperature, was then distilled from the solution. The distillation of the isopropyl ether organic extractant, was achieved by applying to the flask, containing the solution of acrylic acid, organic extractant and water, a reduced pressure of about 100 mm Hg, at room temperature (about 20-24° C.). The distillation was completed in about 5 minutes. The resulting isopropyl ether distillate that was collected, and the remaining aqueous solution in the flask, were weighed, and the concentration of acrylic acid in both the isopropyl ether distillate and in the aqueous solution, were determined by means of titration. The amount of acrylic acid that remained in the flask as the aqueous solution was 91%. […]

| SMILES | amount of acrylic acid that remained in the flask as the aqueous solution [%] | amount of acrylic acid that was co-distilled with the extractant |
| --- | --- | --- |
| CC(C)OC(C)C [Isopropyl Ether, Isopropyl ether] | 91 | about 7% |
